# Earlier results as cited in US9757705B2, “Method for production of concentrates of preferably water-soluble active agents” (KWIZDA AGRO GMBH, priority 2013, dated 2017).
# Conditions: at 20° C.; according to literature
compound,measurement,value
C/C(=N\C#N)N(C)Cc1ccc(Cl)nc1 [Acetamiprid],solubility,400 mg/100 ml
